What is called IC50 is the concentration that inhibits the measured activity by half.

The results in this text go back to patent US20070027190A1, “Antibacterial fab i inhibitors” (priority 2003, published 2007).

The structures appear in SMILES notation. Values after ≈ are worked out from the molar mass of the structure shown. Like-named read-outs stand apart in the source and are kept apart here.

Assay [1] relates to methicillin resistant Staphyloccocus aureus (MRSA, strain ATCC 700699). Briefly: MIC against methicillin resistant S. aureus (NCCLS dilution). It is filed as cell-based. The conditions noted are these: Staphylococcus aureus, serial two-fold dilutions, 96-well. As to the method:
The sensitivity of methicillin resistant Staphyloccocus aureus (MRSA, strain ATCC 700699, American Type Culture Collection, Manassas, Va.) to the disclosed fabI inhibitors was followed by measuring the minimal inhibitory concentration (MIC) at varying inhibitor levels. This was performed according to NCCLS (National Center for Clinical Laboratory Standards) recommendations (NCCLS, 1997, METHODS FOR DILUTION ANTIMICROBIAL SUSCEPTIBILITY TESTS FOR BACTERIA THAT GROW AEROBICALLY, 4th ed.; approved standard. NCCLS document M7-A4. NCCLS, Wayne, Pa.), in 100 μl volume in 96-well format, with serial two-fold dilutions of drug concentration.

A further assay concerns the target T1, E. coli fabI (Escherichia coli, UniProt P0AEK4).
T1 construct: made in house; host or cells: E. coli BL21(DE3)
The experiment in a line: fabI kinetic assay (NADH absorption at 340 nm, crotonoyl-CoA substrate). The assay is classed as biochemical. As to the method: In order to perform more detailed kinetic assays on the disclosed compounds, additional purifed fabI was needed. The E. coli fabI gene was cloned into the pET30a expression vector (Novagen, Inc., Madison, Wis.) and expressed in E. coli BL21(DE3) cells. The purification procedure utilized chromatography with Q-sepharose, blue resin, and HA resin as follows.
Each cell pellet was suspended in a 4 fold-volume of lysis buffer (50 mM KH2PO4 pH 8.0, 100 mM NaCl, 2 mM ethylene glycol tetra-acetic acid (EGTA), and 10% glycerol). Cells were broken by passage through a Microfludics cell disrupter 4 times, and the cell lysate was centrifuged at 30,000×g for 20 minutes. The supernatant was applied to a Q-sepharose column pre-equilibrated in a buffer composed of 10 mM Tris-HCl pH 8.0, 0.1 mM EGTA, 1 mM phenylmethylsulfonylfluoride (PMSF), 100 mM NaCl, 10% glycerol, 0.1% β-mercaptoethanol, and 0.02% Brij 35. fabI was eluted with a NaCl gradient (0.1-1M) in the equilibration buffer. The major peak fractions were pooled and concentrated, then dialyzed overnight at 4° C. in 2 L of dialysis buffer (10 mM Tris-HCl pH 7.5, 0.1 mM EGTA, 0.1 mM PMSF, 10% glycerol, 0.1% β-mercaptoethanol, and 0.02% Brij 35). The dialyzed solution was centrifuged at 3,000×g for 20 minutes, and the supernatant was loaded on a blue resin column pre-equilibrated in a buffer composed of 10 mM Tris-HCl pH 7.5, 0.1 mM EGTA, 1 mM PMSF, 50 mM NaCl, 10% glycerol, 0.1% β-mercaptoethanol, and 0.02% Brij 35. fabI was eluted with the equilibration buffer containing NaCl (gradient 50˜1000 mM). The major peak fractions were pooled and dialyzed overnight at 4° C. in 2 L of the equilibration buffer as described above. Then the dialyzed solution was centrifuged at 3,000×g for 20 minutes, and the supernatant was further purified on a hydroxyapatite column pre-equilibrated in a buffer consisting of 20 mM KH2PO4 pH 8.0, 0.1 mM EGTA, 0.1 mM PMSF, 10% glycerol, 0.1% β-mercaptoethanol, and 0.02% Brij 35. fabI was eluted with a gradient of KH2PO4 up to 500 mM. The peak fractions were pooled and dialyzed in storage buffer (10 mM MOPS pH7.0, 150 mM NaCl, 0.1 mM EGTA, 50% glycerol, 0.02% Brij 35), then stored at −20° C.
The kinetic assay was used to confirm the activity of compounds identified by the single-point assay and screen and to measure the IC50 of compounds which inhibit fabI. It was performed in a 96 well microtiter dish. The final concentrations of each component in each 50 μl reaction are as follows—sodium phosphate pH 7.5, 100 mM; NADH, 200 uM; dithiothreitol (DTT), 1 mM; fabI, 3 ug/ml; crotonoyl-CoA, 0.8 mM.
A 2 ul volume of each compound to be tested was loaded into each well, followed by 30 ul Buffer A (sodium phosphate pH7.5, 100 mM; DTT, 1 mM; fabI, 5 ug/ml, obtained as described below). For IC50 measurements, the compound was tested in serial dilution. The reaction was initiated by adding 20 ul Buffer B (sodium phosphate pH7.5, 100 mM; NADH, 500 uM; DTT, 1 mM; and the substrate, crotonoyl-CoA, 2 mM). The reaction was monitored for 5.5 minutes on a spectrometer by measuring absorption at 340 nm. The rate of reduction of NADH in each reaction well was collected and the percentage inhibition was calculated by using SOFTmax® PRO software (Molecular Devices, Sunnyvale, Calif.). The percentage of inhibition of each compound was calculated according to following formula: Percentage Inhibition=100*(rate in the presence of compound-rate of negative control)/(rate of positive control-rate of negative control)
The negative control was the reaction of fabI in the presence of 2% DMSO but no inhibitory compounds, and the positive control was the mixture of the all reaction components excluding fabI.

Assay [2] relates to fabI (acetate incorporation into fatty acids) in S. aureus strain ATCC 700699. The experiment in a line: 14C acetate incorporation into fatty acids in S. aureus. It is filed as cell-based. To be noted: 0.25x-2x MIC; 0-30 min at 37° C.; FIG. 1. The protocol: Radioactive (14C) acetic acid was added to 0.4 uCi/ml. After incubation at 37° C. for 0, 5, 10, 15, and 30 minutes, samples were taken, and cells were added to ice cold 10% trichloroacetic acid (TCA) for 30 min. Next, cells were filtered (Millipore MultiScreen-FC filters), washed 2× with 200 ul and 1× with 100 ul cold 10% TCA followed by 2× with 200 ul and 1× with 100 ul cold water. The filters were added to 5 ml scintillation fluid and counts per minute were measured in a scintillation counter. The % inhibition of acetate incorporation into fatty acids was determined by comparison to a control consisting of cells not treated with inhibitor.

In assay [3] the test system is strain of Staphylococcus aureus that under-expresses a fabI gene under control of a regulated promoter. Briefly: MIC in IPTG-regulated fabI under-expressing S. aureus strain. It is filed as cell-based. From the text: In general, a bacterial strain which is under-producing the target of interest will be more sensitive to test compounds than a wild-type strain if the compound is acting via inhibition of that target. Accordingly, a strain of Staphylococcus aureus that under-expresses a fabI gene under control of a regulated promoter was constructed.
First, the endogenous S. aureus fabI gene was replaced with a drug-resistance marker (erythromycin-resistance, erm^r) in a two-step allele-replacement procedure (see F. Fan et al., Plasmid, 2001, 46: 71-75). About 1 Kb of DNA sequence flanking each side of the S. aureus fabI gene (SwissProt Q9RMI3; M. Kuroda et al., Lancet 2001, 357:1225-1240) was PCR-amplified from genomic DNA, ligated to an erythromycin-resistance cassette by cross-over PCR (A. J. Link et al., J. Bacteriol., 1997, 179: 6228-6237), and cloned into an allele-replacement suicide vector carrying a kanamycin-resistance marker (kan^r) and the sacB gene encoding levansucrase. This allele-replacement plasmid was introduced by electroporation into an S. aureus host strain carrying the E. coli lactose operon repressor (lacI) and a lac-promoter driving T7 RNA polymerase production from the chromosome. Selection for kan^r yielded cells containing the entire plasmid by means of a single cross-over recombination. […]

T1 sequence (P0AEK4 whole entry): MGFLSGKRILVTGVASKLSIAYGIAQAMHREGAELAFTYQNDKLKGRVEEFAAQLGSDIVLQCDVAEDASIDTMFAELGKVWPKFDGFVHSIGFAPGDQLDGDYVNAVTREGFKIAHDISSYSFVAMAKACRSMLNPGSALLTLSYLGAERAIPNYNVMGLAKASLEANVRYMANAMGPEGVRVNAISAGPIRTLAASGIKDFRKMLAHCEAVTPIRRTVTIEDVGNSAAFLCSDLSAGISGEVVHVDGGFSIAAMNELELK

The compound `CC(C)NC(=O)CSc1nc(-c2cccs2)cc(-c2ccc(F)cc2)c1C#N` [B] returned an MIC in assay [1] above 64 µg/mL. At E. coli fabI, this compound yielded an IC50 of 12 µM.

For the compound `N#Cc1c(-c2cccs2)cc(-c2cccs2)nc1SCc1ccc(C(=O)O)cc1` [Compound A], the MIC in assay [1] is 2 µg/mL (≈ 4.6 µM); in assay [3] (read-out: minimum inhibitory concentration (MIC), fabI regulated by IPTG, before the inducer (IPTG) level was reduced), 8 µg/mL; in assay [3] (read-out: minimum inhibitory concentration (MIC), fabI regulated by IPTG, inducer (IPTG) level reduced), 4 µg/mL. The concentration for half-maximal inhibition (IC50) against E. coli fabI came to 4 µM. The “inhibition of acetate incorporation into fatty acids (activity of fabI)” value in assay [2] is “marked inhibition”.

The compound `N#Cc1c(-c2cccs2)cc(-c2cccs2)nc1SC(C(=O)O)c1ccccc1` (centres unmarked) [Compound C] returned an MIC in assay [1] of 32 µg/mL (≈ 73.6 µM). At E. coli fabI, this compound showed a half-inhibitory concentration (IC50) of 12.3 µM.

As to `COc1ccc(NC(=O)CSc2nc(-c3cccs3)cc(-c3ccc(F)cc3)c2C#N)cc1OC` [D], in assay [1], the MIC was above 64 µg/mL. On E. coli fabI, this compound registered a half-inhibitory concentration (IC50) of 9.2 µM.

In turn, `N#Cc1c(-c2cccs2)cc(-c2cccs2)nc1SCCc1ccc(C(=O)O)cc1` [E] gave an MIC in assay [1] of 0.75 µg/mL (≈ 1.67 µM). The compound also came in with an IC50 at E. coli fabI of 3 µM.

Compound `CC(Sc1nc(-c2cccs2)cc(-c2cccs2)c1C#N)c1ccc(C(=O)O)cc1` (centres unmarked) [F] came in with an MIC in assay [1] of 0.75 µg/mL (≈ 1.67 µM). The compound also showed a half-maximal inhibitory concentration (IC50) at E. coli fabI of 3 µM.

Regarding `N#Cc1c(-c2cccs2)cc(-c2cccs2)nc1SCc1cccc(C(=O)O)c1` [G], the MIC in assay [1] was determined as 1.5 µg/mL (≈ 3.45 µM). For the same compound, the half-inhibitory concentration (IC50) at E. coli fabI is 6 µM.

For `N#Cc1c(-c2cccs2)cc(-c2cccs2)nc1SCc1ccc(CC(=O)O)cc1` [H], the MIC in assay [1] stood at 4 µg/mL (≈ 8.92 µM). This compound gave an IC50 at E. coli fabI of 25 µM.

Regarding `COc1ccc(-c2cc(-c3ccco3)c(C#N)c(SCc3ccc(C(=O)O)cc3)n2)cc1` [I], the MIC in assay [1] came to 8 µg/mL (≈ 18.1 µM). Also, 25 µM corresponded to half-maximal inhibition at E. coli fabI (IC50).

`CC(C)NC(=O)CSc1nc(-c2cccs2)cc(-c2ccc(Cl)cc2)c1C#N` [N]: the MIC in assay [1] is above 64 µg/mL. It took 46 µM to reach half-maximal inhibition against E. coli fabI (IC50).

Take `N#Cc1c(-c2cccs2)cc(-c2cccs2)nc1SCCC(=O)O` [P]: the concentration for half-maximal inhibition (IC50) on E. coli fabI (purified E. coli fabI 3 ug/ml, NADH 200 uM, crotonoyl-CoA 0.8 mM, pH 7.5, read-out: IC50) turned out to be 87 µM.

Regarding `N#Cc1c(-c2ccc(Cl)cc2)cc(-c2cccs2)nc1SCC(N)=O` [Q], the MIC in assay [1] was above 64 µg/mL. At E. coli fabI, this compound showed an IC50 of 33 µM.
